Assay results from US12642827B2, “Lactic acid bacteria strain—antibacterial peptides produced by said strain and related pharmaceutical compositions” (UNIVERSITE DE LILLE, priority 2019, dated 2026).
Ends that are not written are not given here. His‑tag = His-Tag tail of six histidine residues (6 His), attached at the N- or C-terminal end

Tests used:
Type in all cases: cell-based, Escherichia coli
[1] = test system: E. coli colistin-resistant strain; assay: Anti-E. coli activity (AU/mL) of recombinant peptides; conditions: purified on Ni-NTA, adjusted to pH 5
From the text: Each of the orf coding for putative bacteriocin was cloned in expression vector suitable for E. coli competent cells. Each orf was cloned under the control of the inducible T7 promoter and with His-Tag (6 His) tail positioned on the N-terminal or C-terminal part. The cloning of each orf at the N- or C-terminal position of Histag tail, has led to 10 recombinant plasm ids. Each of these recombinant plasm ids was introduced in E. coli BL21 (DE3)(plysS) competent cells. The successfully transformed E. coli was regenerated in SOC medium for 1 h at 37° C. with shaking at 160 rpm, and then selected on Luria-Bertani (LB) agar medium supplemented with ampicillin (100 μg mL^−1) and chloramphenicol (30 μg mL^−1) (Sigma Aldrich). After overnight incubation at 37° C., the obtained colonies on LB agar medium with antibiotics were checked for the presence of the recombined plasmid containing the appropriate cloned orfs by PCR using specific primers.
Overnight culture of E. coli strain BL21(DE3)(pLysS), harboring each recombinant plasmid, was diluted to 1% (vol/vol) in LB medium containing ampicillin (100 μg mL^−1) and chloramphenicol (30 μg mL^−1) and then grown aerobically at 37° C. […]
Then the obtained solution was adjusted to pH 5 using acetic acid and then its activity (AU/mL) against E. coli colistin-resistant strain was evaluated, as described previously.

[2] = test system: E. coli 184; conditions: E. coli 184, mcr-1+
Protocol: (§1) The cell-free supernatant (CFS) was obtained by centrifugation (8 000 g, 10 min, 4° C.) of a culture of L. paracasei I-CNCM 5369 grown without shaking on MRS medium for 24 to 30 h at 37° C. Then 40 mL of the obtained CFS was loaded onto a reversed phase C18 (Agilent, USA) cartridge. Afterwards, a washing step was performed with 10% (v/v) acetonitrile followed-up by an elution with 40 mL of 20% (v/v) acetonitrile solution in order to eluate the active fraction. The active fraction was dried using SpeedVac and resuspended in 1:10 of the initial volume of ultrapure water. The resulting active solution was designed as fraction E20 (or E20% particularly in the figures) throughout the text. Fraction E20 was stored at 4° C. and therefore used for the different tests to characterize the anti-E. coli activity. Noteworthy, E20 fraction was tested against a panel of E. coli strains with different genotypes to examine their sensibility to the putative bacteriocin(s) contained in this fraction. This assessment was performed by the determination of the minimal inhibitory concentration (MIC) values, which were ranging from 250 to 2 000 μg/mL (Table 5).
(§2) E20 fraction prepared from L. paracasei I-CNCM 5369, was half-diluted and mixed with colistin at a concentration ranging from 1 to 128 μg/mL in BHI medium. The resulting formulations were tested against E. coli 184, carrying the mcr-1 gene, as well as on other E. coli strains (Table 6). After an overnight period of incubation at 37° C., the growth of E. coli strains was checked by spectrophotometry at OD600 nm, and new MIC values of colistin/E20 were determined. […] Indeed, the decreased from 8 to 2 μg/mL in the presence of E20 fraction. This synergetic interaction was as well observed for other E. coli strains, where the MIC values decreased twice for E. coli E4A4WT, 4 times folds for E. coli 289 and 8 times for E. coli E4A4 variant. […] The weight composition of the mixture of E20 fraction+colistin is indicated in brackets next to the MIC value. The first value refers to the amount of colistin in μg/mL, whereas the second in brackets refers to the amount of E20 fraction in μg/mL).
(§3) The alginate nanoparticles (Alg NPs) were obtained by a top down process (ball milling) and used at a concentration of 500 μg/mL. The E20 fraction was mixed at a concentration of 60 μg/mL with this suspension, which corresponds to 12% of the used Alg NPs concentration. […] To gain insights on the effects of alginate nanoparticles, colistin was also loaded on Alg NPs and the resulting formulation (colistin-Alg NPs) was tested against same target E. coli strains.

[3] = test system: E. coli 289; conditions: E. coli 289, mcr-1−
Protocol: as §1, §2, §3

[4] = test system: E. coli SBS36; conditions: E. coli SBS36, truncated LPS
Protocol: as §1, §2, §3

[5] = test system: E. coli TOP10; conditions: E. coli TOP10, LPS-
Protocol: as §1, §2, §3

[6] = test system: E. coli CIP7628; assay: MIC determination; conditions: E. coli CIP7628, reference strain
Protocol: as §1
The alginate nanoparticles (Alg NPs) were obtained by a top down process (ball milling) and used at a concentration of 500 μg/mL. […]

[7] = test system: E. coli ATCC8739; assay: MIC determination; conditions: E. coli ATCC8739, reference strain
Protocol: as §1
as §2, with “The first value refers to the amount of colistin in μg/mL, whereas the second in brackets refers to the amount of E20 fraction in μg/mL).” left out

[8] = test system: E. coli E4A4 WT; assay: MIC determination; conditions: environmental strain
Protocol: as §1
as §2, with “The first value refers to the amount of colistin in μg/mL, whereas the second in brackets refers to the amount of E20 fraction in μg/mL).” left out

[9] = test system: E. coli E4A4 variant; assay: MIC determination; conditions: colistin unsensibilised
Protocol: as §1
as §2, with “The first value refers to the amount of colistin in μg/mL, whereas the second in brackets refers to the amount of E20 fraction in μg/mL).” left out

[10] = test system: panel of E. coli strains; assay: Anti-E. coli activity / MIC over a panel of strains
[11] = test system: E. coli ATCC8739; assay: Killing curves; conditions: BHI, inhibitory concentration (colistin 16 μg/mL), pH 4.5-5, 37° C.
Protocol: The killing curves were determined on three E. coli strains, because of for their resistance or sensitivity to colistin. These strains were E. coli 184 (mcr-1), E. coli E4A4 variant with resistance to colistin, and E. coli ATCC8739 colistin-sensitive reference strain (Table 5). These strains were inoculated in BHI (Brain Heart Infusion) medium containing the semi-purified fraction of E20 fraction at inhibitory concentration. An untreated E. coli ATCC8739 control treated with inhibitory concentration of colistin (16 μg/mL) was also tested. The pH of the medium was adjusted to 4.5-5 in the various samples, which were incubated at 37° C. for 8 h. At regular intervals of time, samples were taken to determine the number of colony forming units per mL (CFU/mL) under each tested condition.
As depicted in the FIG. 2, the number of CFU/mL of the strains treated with E20 fraction decreased rapidly with no visible growth (0 CFU/mL), after 1 h of incubation. […] A similar data was obtained after 1 h of incubation for E. coli ATCC8739 treated with colistin (16 μg/mL).

Orf10 HisTag C-ter: recombinant Orf010 peptide with C-terminal His-Tag expressed in E. coli BL21 (DE3) (pLysS) (MYTMTNLKDKELSQITGGFAFVIPVAAILGFLASDAWSHADEIAGGATSGWSLADKSHSL-{His‑tag}; not fully specified; listed as Lactobacillus paracasei)
anti E. coli activity [1]: 200 AU/mL

colistin
MIC [2]: 8 µg/mL | MIC [3]: 8 µg/mL | MIC [4]: 2 µg/mL | MIC [5]: 1 µg/mL | MIC [6]: 1 µg/mL | MIC [7]: 2 µg/mL | MIC [8]: 2 µg/mL | MIC [9]: 16 µg/mL | colistin MIC of E. coli 184 compared to reference strain E. coli ATCC8739 [10]: four folds higher | incubation time to no visible growth (0 CFU/mL) [11]: 1 h
